Assay results taken from patent US8637090B2, “Gallium formulation for the treatment and prevention of infectious diseases” (Aridis Pharmaceuticals, priority 2009, dated 2014).
Like-named read-outs stand apart in the source and are kept apart here.

Key:
[1] = Crystallinity of spray dried gallium powders by powder X-ray diffraction; format: physicochemical; settings: qualitative analysis of crystallinity, XRD 5° to 75° 2θ
Protocol: Crystallinity of the spray dried gallium powders was determined using a Philips X-Pert Pro MPD powder diffractometer. The radiation used was generated by a Cu Kα source with a wavelength of 1.5406 Å at 45 kV and 40 mA. Samples were scanned from 5° to 75° 2θ at a scanning rate of 1.2° 2θ/min using a slit width of 0.25°. Particular emphasis was placed on determining the effects of the various excipients on the crystallinity of the spray dried particles. The composition of the gallium formulations examined, as well as the residual moisture content and a qualitative analysis of crystallinity are shown in Table 8. X-ray diffractometer (XRD) scans reveal that spray dried gallium nitrate is amorphous as are mannitol and L-leucine (FIG. 5). Sodium citrate, however, is crystalline and the crystallinity is maintained even in the presence of other excipients.

B. anthracis 7702 cells = format: cell-based; settings: 1:1 gallium-to-citrate, approximately 20 hours of growth
[2] = test system: Pseudomonas aeruginosa (Pa); settings: against Pa; cited from earlier work
Pa = settings: mouse; nasal instillation of a bolus of liquid; also under in vivo Pa biofilm colonization conditions; cited from earlier work

## O=[N+]([O-])[O-].O=[N+]([O-])[O-].O=[N+]([O-])[O-].[Ga+3] [Gallium, gallium nitrate]
[1]
  Crystalline/Amorphous: amorphous
B. anthracis 7702 cells; Gallium concentration 6.8 μM
  OD600 nm: 0.000
B. anthracis 7702 cells; Gallium concentration 23.3 μM
  OD600 nm: 0.000
B. anthracis 7702 cells; Gallium concentration 27.1 μM
  OD600 nm: 0.001
B. anthracis 7702 cells; Gallium concentration 88.9 μM
  OD600 nm: 0.003
B. anthracis 7702 cells; Gallium concentration 614.8 μM
  OD600 nm: 0.000
B. anthracis 7702 cells; Gallium concentration 1709.9 μM
  OD600 nm: 0.000
[2]
  bactericidal concentration (MBC): approximately 0.7 μg/mL
  minimum inhibitory concentration (MIC90): approximately 0.7 μg/mL
Pa
  protection after lethal i.t. Pa inoculation: good protection
